Here are results for two molecules from US8895565B2, “Heterocyclic compound and use of the same” (priority 2009, dated 2014).

The subject of assay [1] is xenografts of the human vulval epidermoid carcinoma cell line A-431. Put plainly: Test (d): in vivo inhibition of growth of A-431 xenografts in athymic nude mice. The note with it: tumor volume vs untreated control, dose of 50 mg/day/weight (kg), oral, once per day. On the procedure: (d) In vivo assay on a group of athymic nude mice (strain ONU: Alpk) for determining the effect of a test compound (usually, ball-milled, prepared as a suspension in 0.5% polysorbate, and orally administered) in inhibiting the growth of xenografts of the human vulval epidermoid carcinoma cell line A-431
A-431 cells were maintained in a cultured product in DMEM having 5% FCS and 2 mM glutamine supplemented thereto. Freshly cultured cells were harvested by trypsinization and subcutaneously injected into both flanks of each of many donor nude mice (10000000 cells/0.1 ml/mouse). When a sufficient amount of tumorigen was obtained (about 9 to 14 days later), fragments of tumor tissue were transplanted in the flanks of recipient nude mice (test day 0). […] To these groups of mice, administration of the test compound was commenced. The test compound was administered once per day continuously for 13 days in total (including test day 7 to 19). In some tests, administration of the test compound was continued beyond test day 19, for example, to test day 26. In each case, the animals were killed on the following day and final tumor volume was calculated from the measurement values of the length and width of the tumors. The suppression percentage was calculated from the resultant tumor volume based on the control (untreated).

The target in assay [2] is T1, EGF receptor tyrosine kinase (Homo sapiens, UniProt P00533).
T1 construct: Receptor tyrosine kinase was obtained from A-431 cells (derived from human vulval carcinoma) in partially purified form; endogenous in cells; host or cells: A-431 cells (human vulval carcinoma); solubilised membrane preparation
T1 sequence (P00533 25-1210): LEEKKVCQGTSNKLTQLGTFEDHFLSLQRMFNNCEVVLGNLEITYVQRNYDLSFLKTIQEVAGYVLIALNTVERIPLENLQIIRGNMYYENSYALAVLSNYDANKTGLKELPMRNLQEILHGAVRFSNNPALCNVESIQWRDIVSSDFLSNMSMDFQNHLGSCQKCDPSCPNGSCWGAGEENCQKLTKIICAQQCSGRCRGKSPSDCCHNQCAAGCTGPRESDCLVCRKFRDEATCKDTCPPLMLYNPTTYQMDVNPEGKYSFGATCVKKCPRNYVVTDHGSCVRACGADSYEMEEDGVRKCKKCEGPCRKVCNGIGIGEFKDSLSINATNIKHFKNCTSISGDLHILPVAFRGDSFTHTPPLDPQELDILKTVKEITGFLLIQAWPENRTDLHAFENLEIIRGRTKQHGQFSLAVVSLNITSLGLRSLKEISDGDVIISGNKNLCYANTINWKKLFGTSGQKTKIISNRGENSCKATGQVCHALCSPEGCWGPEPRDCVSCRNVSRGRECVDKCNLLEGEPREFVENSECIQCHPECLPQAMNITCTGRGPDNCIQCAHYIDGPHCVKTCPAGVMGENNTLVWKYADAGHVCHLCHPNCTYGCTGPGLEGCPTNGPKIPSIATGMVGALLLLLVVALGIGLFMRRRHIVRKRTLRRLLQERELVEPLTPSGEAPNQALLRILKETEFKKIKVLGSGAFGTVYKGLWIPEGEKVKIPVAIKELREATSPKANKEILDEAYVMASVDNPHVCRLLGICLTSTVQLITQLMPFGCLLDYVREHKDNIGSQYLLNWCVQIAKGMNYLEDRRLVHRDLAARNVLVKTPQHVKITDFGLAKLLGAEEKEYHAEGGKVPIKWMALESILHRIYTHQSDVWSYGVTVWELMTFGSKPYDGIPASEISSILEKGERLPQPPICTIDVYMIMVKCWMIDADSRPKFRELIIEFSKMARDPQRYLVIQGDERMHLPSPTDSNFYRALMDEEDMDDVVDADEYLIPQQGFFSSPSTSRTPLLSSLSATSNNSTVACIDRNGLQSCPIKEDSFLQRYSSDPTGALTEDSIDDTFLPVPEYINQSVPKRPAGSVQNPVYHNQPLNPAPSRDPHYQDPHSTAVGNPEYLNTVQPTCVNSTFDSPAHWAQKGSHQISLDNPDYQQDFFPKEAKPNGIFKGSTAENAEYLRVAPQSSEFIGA
T1 sequence (P01133 971-1023 partner limits assumed): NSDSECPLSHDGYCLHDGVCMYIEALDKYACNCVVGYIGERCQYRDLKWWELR
Put plainly: Test (a): in vitro inhibition of the enzyme EGF receptor tyrosine kinase. It counts as biochemical. The settings on record: receptor tyrosine kinase partially purified from A-431 cells, EGF-stimulated. The procedure: (a) In vitro assay for measuring the effect of a test compound in inhibiting the enzyme EGF receptor tyrosine kinase
Receptor tyrosine kinase was obtained from A-431 cells (derived from human vulval carcinoma) in partially purified form by a method relevant to a method shown in Carpenter et al., J. Biol. Chem., 1979, 254, 4884, Cohen et. al., J. Biol. Chem., 1982, 257, 1523, and Braun et al., J. Biol. Chem., 1984, 259, 2051.
A-431 cells were grown in Dulbecco's modified Eagle's medium (DMEM) containing 5% fetal calf serum (FCS) up to a confluent state. The resultant cells were homogenized in a hypotonic borate/EDTA buffer (pH 10.1). The homogenate was centrifuged at 400×g for 10 minutes at 0° C. to 4° C. […]
The test compound/EGF mixture solution (5 μl) was added to the test enzyme solution (10 μl) and the mixture was incubated at 0° C. to 4° C. for 30 minutes. […] Radioactivity present in the paper-filter was measured by a liquid scintillation counter (Sequence A). […] Receptor tyrosine kinase inhibition was indicated by inhibition ratio (%), which was calculated in accordance with the following equation, provided that the measurement results of sequence A is expressed by SA, the measurement results of sequence B by SB, and the measurement results of sequence C by SC. […] Subsequently, within a concentration range of a test compound providing IC50 value, the extent of inhibition was determined.

The test system of assay [3] is liver cell growth stimulation induced by growth factor TGFα. As to the kind of experiment: Test (c): in vivo inhibition of liver cell growth stimulation induced by TGFα (BrdU uptake). The note with it: Rattus norvegicus; male rats, oral, inhibition of liver cell proliferation by BrdU uptake, approximate ED50. The procedure:
(c) In vivo assay for measuring the effect of a test compound (usually, ball-milled, prepared as a suspension in 0.5% polysorbate, and orally administered) in inhibiting liver cell growth stimulation induced by administration of growth factor TGFα (subcutaneous administration of 400 μg/kg, i.e., twice a usual dose, 3 hours and 7 hours respectively after administration of the test compound) in a group of male rats
In a control group of rats, administration of TGFα causes liver cell growth stimulation as large as on average 5 times.
Cell growth of control animals and test animals was measured in accordance with the following manner:
On the morning of the day after a test compound (or 0.5% polysorbate in a control group) was administered, bromodeoxyuridine (BrdU; intraperitoneally 100 mg/kg) was administered to animals. Four hours later, the animals were killed and the livers were excised out. Slices were cut out from each liver, and BrdU uptake was measured in the same manner as in conventional immunohistological techniques described below:
To calculate an approximate ED50 value on inhibition of liver cell proliferation measured by inhibition of BrdU uptake, tests were further performed using the test compound within a predetermined dose range.

For assay [4], the system named is human nasopharyngeal cancer cell line KB. As to the kind of experiment: Test (b): in vitro inhibition of EGF-stimulated growth of KB cells (MTT). It counts as cell-based. The settings on record: EGF 10 ng/ml. The procedure:
(b) In vitro assay for measuring the effect of a test compound in inhibiting growth of human nasopharyngeal cancer cell line KB by EGF-stimulation
KB cells were seeded into wells at a density of 1×10^4 to 1.5×10^4 cells per well and grown in DMEM supplemented with 5% FCS (charcoal-stripped) for 24 hours. After incubation for 3 days, cell growth was determined based on the extent of blue color occurrence, which was produced by metabolizing a MTT tetrazolium dye. Subsequently, cell growth was determined in the presence of EGF (10 ng/ml) or in the presence of EGF (10 ng/ml) and a test compound within a predetermined concentration range. Then, an IC50 value could be calculated.

As for `CCOC(=O)c1ccc(CNc2ncnc(C)c2C#Cc2ccc(C(F)(F)F)cc2)o1` [Compound No. 1, Ethyl 5-{6-methyl-5-{[4-(trifluoromethyl)phenyl]ethynyl}pyrimidin-4-ylaminomethyl}-2-furancarboxylate], the “suppression rate in Test (d)” value in assay [1] stood at 68%. The values for the concentration for half-maximal inhibition (IC50) in assay [2] and in assay [4] were 240 nM and 800 nM, respectively. Also, in assay [3], the ED50 (usually the dose that gives a 50% effect, or the effect in half of the subjects) is less than 12.1 mg/kg.
As to `COC(=O)c1ccc(CNc2ncnc(C)c2C#Cc2ccc(C(F)(F)F)cc2)o1` [Compound No. 2, Methyl 5-(6-methyl-5-{[4-(trifluoromethyl)phenyl]ethynyl}pyrimidin-4-ylaminomethyl)-2-furancarboxylate], the “suppression rate in Test (d)” value in assay [1] amounted to 69%. Further, the IC50 – broadly, the concentration that inhibits the measured activity by half – was 220 nM in assay [2] and 700 nM in assay [4]. This molecule also displayed an ED50 in assay [3] of less than 11.8 mg/kg.
